In the supplement of paper PMC10307832:

Key:
Experiment in all cases: relative viability (nuclei count vs DMSO), 5 days (fraction); higher = more cells survive
CX-5461 + Tozasertib = compound: Cc1cnc(CNC(=O)c2c(=O)c3ccc(N4CCCN(C)CC4)nc3n3c2sc2ccccc23)cn1 [CX-5461] + Cc1cc(Nc2cc(N3CCN(C)CC3)nc(Sc3ccc(NC(=O)C4CC4)cc3)n2)n[nH]1 [Tozasertib] (partner 0.1 µM)
Method in brief: (§1)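 For relative viability, nuclei counts in treated wells were divided by those in vehicle wells. Lung cancer cell lines had been pin-tool dosed in 1536-well plates the day after seeding and cultured for 5 days, then fixed and stained in one step (final 0.05% Triton X-100, 1% formaldehyde, 1 ug/ml Hoechst) and imaged at 4×. Doses were one drug alone or a fixed anchor-drug dose plus five library-drug doses (not always all listed) in √10 steps, and values are duplicate-plate medians.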

IMD-0354 + Linsitinib = compound: O=C(Nc1cc(C(F)(F)F)cc(C(F)(F)F)c1)c1cc(Cl)ccc1O [IMD-0354] + C[C@]1(O)C[C@@H](c2nc(-c3ccc4ccc(-c5ccccc5)nc4c3)c3c(N)nccn32)C1 [Linsitinib] (partner 1 µM)
Method in brief: as §1

IMD-0354 + Navitoclax = compound: O=C(Nc1cc(C(F)(F)F)cc(C(F)(F)F)c1)c1cc(Cl)ccc1O [IMD-0354] + CC1(C)CCC(c2ccc(Cl)cc2)=C(CN2CCN(c3ccc(C(=O)NS(=O)(=O)c4ccc(N[C@H](CCN5CCOCC5)CSc5ccccc5)c(S(=O)(=O)C(F)(F)F)c4)cc3)CC2)C1 [Navitoclax] (partner 0.5 µM)
Method in brief: as §1

IMD-0354 + Palbociclib = compound: O=C(Nc1cc(C(F)(F)F)cc(C(F)(F)F)c1)c1cc(Cl)ccc1O [IMD-0354] + CC(=O)c1c(C)c2cnc(Nc3ccc(N4CCNCC4)cn3)nc2n(C2CCCC2)c1=O [Palbociclib] (partner 0.5 µM)
Method in brief: as §1

Cell Line	relative viability (CX-5461 + Tozasertib; first compound 0.01 µM)	relative viability (CX-5461 + Tozasertib; first compound 0.03162 µM)	relative viability (CX-5461 + Tozasertib; first compound 0.1 µM)	relative viability (CX-5461 + Tozasertib; first compound 0.3162 µM)	relative viability (CX-5461 + Tozasertib; first compound 1 µM)	relative viability (IMD-0354 + Linsitinib; first compound 0.04 µM)	relative viability (IMD-0354 + Linsitinib; first compound 0.1265 µM)	relative viability (IMD-0354 + Linsitinib; first compound 0.4 µM)	relative viability (IMD-0354 + Linsitinib; first compound 1.265 µM)	relative viability (IMD-0354 + Linsitinib; first compound 4 µM)	relative viability (IMD-0354 + Navitoclax; first compound 0.04 µM)	relative viability (IMD-0354 + Navitoclax; first compound 0.1265 µM)	relative viability (IMD-0354 + Navitoclax; first compound 0.4 µM)	relative viability (IMD-0354 + Navitoclax; first compound 1.265 µM)	relative viability (IMD-0354 + Navitoclax; first compound 4 µM)	relative viability (IMD-0354 + Palbociclib; first compound 0.04 µM)	relative viability (IMD-0354 + Palbociclib; first compound 0.1265 µM)	relative viability (IMD-0354 + Palbociclib; first compound 0.4 µM)	relative viability (IMD-0354 + Palbociclib; first compound 1.265 µM)	relative viability (IMD-0354 + Palbociclib; first compound 4 µM)
CAL-12T	0.361	0.353	0.222	0.272	0.174	0.771	0.754	0.895	0.152	0.164	1.33	1.08	0.629	0.358	0.156	0.633	0.423	0.325	0.189	0.164
HCC-44	1.05	1.25	0.922	0.811	0.29	0.68	0.573	0.394	0.297	0.128	0.953	0.951	0.446	0.203	0.215	1.06	0.964	0.922	0.661	0.452
EKVX	0.387	0.366	0.332	0.35	0.378	1.1	0.961	–	0.743	0.232	0.967	1.11	–	0.573	0.206	0.383	0.343	–	0.29	0.215
NCI-H1651	0.7	0.465	–	0.505	0.106	1.03	0.901	0.429	0.0622	0.0566	1.05	1.16	0.337	0.052	0.0654	0.504	0.507	0.415	0.516	0.182
A-427	0.195	0.247	0.212	–	0.212	1.21	1.1	0.986	0.719	0.115	0.989	0.983	0.654	0.546	0.115	0.516	0.525	0.441	0.157	0.158
NCI-H2347	0.544	0.563	0.474	0.536	0.454	1.04	1.08	0.824	0.511	0.447	0.818	0.838	0.55	0.35	0.255	0.39	0.418	0.362	0.41	0.405
NCI-H1355	0.579	0.594	0.53	0.323	0.548	1.04	0.708	0.757	0.795	0.203	1.03	0.932	0.82	0.916	0.185	0.385	0.41	0.378	0.195	0.253
SK-MES-1	1	0.977	0.728	0.815	0.294	1.05	1.08	0.762	0.719	0.221	1.48	1.12	0.649	0.441	0.314	0.337	0.286	0.317	0.232	0.221
PC-3 [JPC-3]	0.899	0.947	0.851	0.792	0.847	0.975	0.945	0.826	0.734	0.251	0.712	0.823	0.638	0.527	0.264	0.633	0.578	0.496	0.363	0.282
NCI-H2228	0.245	0.213	0.224	0.261	0.0867	0.563	0.795	0.544	0.167	0.409	0.738	1.12	0.589	1.27	0.355	0.618	0.618	0.683	0.21	0.322
HOP-62	0.315	0.405	0.372	0.284	0.344	1.02	0.898	0.48	0.93	0.206	1.02	0.976	0.504	0.78	0.295	0.454	0.39	0.299	0.266	0.0933
HARA	0.137	0.115	0.138	–	0.189	1.08	0.867	0.577	0.119	0.136	0.952	1.11	0.36	0.342	0.131	0.237	0.202	0.314	0.195	0.204
NCI-H838	0.249	0.281	0.271	–	0.273	1.18	0.969	0.505	0.47	0.324	1.16	1.21	0.468	0.314	0.251	0.223	0.23	0.178	0.186	0.151
NCI-H1755	0.49	0.568	0.565	0.529	0.467	0.998	1.02	0.665	0.666	0.22	1.1	1.05	0.591	0.481	0.16	0.448	0.456	0.419	0.396	0.224
HCC-78	0.463	0.391	0.466	0.326	0.453	0.471	0.495	0.421	0.486	0.276	0.691	0.761	0.509	0.571	0.24	0.538	0.506	0.322	0.383	0.424
NCI-H322M	0.441	0.508	0.49	0.503	0.443	0.973	0.909	0.793	1.09	0.319	1.27	1.23	1.12	1.5	0.267	0.507	0.5	0.5	0.39	0.41
